In patent US8686016B2, “Schweinfurthins and uses thereof” (The United States of America, as represented by the …, priority 2009, dated 2014):
Entries after “also recorded” stand apart in the source; their conditions may differ.

Legend:
SF-295 cells = assay: XTT cell proliferation assay, SF-295; format: cell-based, human; conditions: 48 hours
Procedure: (§1) XTT Cell Proliferation Assay: Cells were seeded into 96-well plates at a density of 2,000 cells/well and allowed to reattach overnight. Cells were treated with SA, synthetic analogs, camptothecin (NCI Chemotherapeutics Repository, Md., USA), or DMSO control at the indicated concentrations continuously for 48 hours followed by assay in the 96-well plate for relative viable cell number using the dye […] (XTT) and a Wallac-Victor 2 plate reader (Perkin-Elmer, Waltham, Mass., USA). Absorbance was determined at 450 nm with 650 nm as a reference reading. Primary astrocytes were additionally assayed at a 96 hour time point.

[1] = system: SF-295 human glioma cells; assay: Clonogenic assay, SF-295; format: cell-based; conditions: 18 hrs treatment, colonies after one week
Procedure: Clonogenic Assays: Monolayers of cells were treated for 18 hrs with SA, and then harvested, counted, and seeded to 35 mm dishes at a density of 1000 cells per dish. After one week, macroscopic colonies were stained with crystal violet (Sigma, St. Louis, Mo., USA) and counted.

MPNST K14553 cells = assay: XTT cell proliferation assay, K14553; format: cell-based, mouse
Procedure: Establishment of NPcis MPNST cell lines: Mice were euthanized by CO2 asphyxiation and tumors were dissected. The tumor volume was measured. The tumor was then cut in half, and ½ fixed in 4% PFA. The other half was rinsed, then cut into 24 pieces of approximately equal size. Each piece was diced with a razor blade and placed in 1 well of a 24 well plate, along with 625 μL of Triple Express (Gibco, Grand Island, N.Y., USA) and 5 μL of recombinant DNAse (Roche, Indianapolis, Ind., USA). Tumors were triturated, then incubated at 37° C. in a 5% CO2 incubator for 2-5 hours, with an additional trituration halfway through incubation time. At the end of the incubation, tumor pieces were triturated again, and suspended cells were transferred to 1.5 mL eppendorf tubes. […] Both plates were monitored for cell growth, grown up to 10 cm plates, and frozen down in 10% DMSO. […]
as §1, with “Absorbance was determined at 450 nm with 650 nm as a reference reading. Primary astrocytes were additionally assayed at a 96 hour time point.” left out

Rho = Rho GTPase pull-down assay; format: cell-based, mouse; conditions: EGF pulsed KR158 cells, 12 hrs and 18 hrs
Procedure: Rho GTPase Pull-Down Assay: The Rho pull down assay was obtained from Upstate Biolotech/Millipore (Billerica, Mass., USA, Cat#17-294). KR158 cells were harvested at approximately 80% confluency and seeded at 5×10^5 cells per well in a 6-well plate. After overnight recovery, cells were serum starved in 0.5% FBS for 18 hrs. Cells were then treated with 10 ng/mL EGF either in the presence or the absence of the indicted concentrations of SA for up to 18 hours. At the indicated time points, the cells were lysed according to the manufacturer's protocols. Proteins pulled down by the Rho-GTP binding beads were eluted by SDS, fractionated on a 10% SDS-PAGE gel, and transferred to a nitrocellulose membrane. Pre-pull-down lysates were run in parallel to determine total levels of Rho in each sample. The membrane was probed by an anti Rho antibody.

With CC(C)=CCC/C(C)=C/Cc1c(O)cc(/C=C/c2cc(O)c3c(c2)C[C@@H]2C(C)(C)[C@H](O)[C@H](O)C[C@@]2(C)O3)cc1O [SA, Schweinfurthin A] the “inhibition of proliferation (percent viability versus control)” value (SF-295 cells) was “sensitive; also recorded: inhibited both the KR158 and SF-295 cell lines in a dose dependent manner”, the colony growth [1] was “inhibited; also recorded: dramatically restricted” and the “inhibition of proliferation (percent viability versus control)” value (MPNST K14553 cells) was “dose dependent inhibition of proliferation; also recorded: sensitive”. The Rho activity (Rho) was “marked inhibition of Rho activity”.
